# Patent EP1974608A1, “Arylpyridazines as fungicides” (Bayer CropScience AG, priority 2007, dated 2008)
# Where two headings read alike, the source gives them in different places.
# How the values were obtained:
# [1] = logP determination by reversed-phase HPLC (C18), EEC Directive 79/831 Annex V.A8; assay type: physicochemical
# [2] = test system: Alternaria solani; assay: Alternaria test (tomato) / protective; assay type: in vivo; conditions: 500ppm Wirkstoff; protective spray on young tomato plants; evaluated 7 days after inoculation
# Excerpt: Alternaria-Test (Tomate) / protektiv
# (§1) Zur Herstellung einer zweckmäßigen Wirkstoffzubereitung vermischt man 1 Gewichtsteil Wirkstoff mit den angegebenen Mengen Lösungsmittel und Emulgator und verdünnt das Konzentrat mit Wasser auf die gewünschte Konzentration.
# Zur Prüfung auf protektive Wirksamkeit bespritzt man junge Tomatenpflanzen mit der Wirkstoffzubereitung in der angegebenen Aufwandmenge. 1 Tag nach der Behandlung werden die Pflanzen mit einer Sporensuspension von Alternaria solani inokuliert und stehen dann 24h bei 100% rel. Feuchte und 20°C. Anschließend stehen die Pflanzen bei 96% rel. Luftfeuchtigkeit und einer Temperatur von 20°C.
# 7 Tage nach der Inokulation erfolgt die Auswertung. Dabei bedeutet 0 % ein Wirkungsgrad, der demjenigen der Kontrolle entspricht, während ein Wirkungsgrad von 100 % bedeutet, dass kein Befall beobachtet wird.
# [3] = test system: Venturia inaequalis; assay: Venturia test (apple) / protective; assay type: in vivo; conditions: 100ppm Wirkstoff; protective spray on young apple plants; evaluated 10 days after inoculation
# Excerpt: Venturia - Test (Apfel) / protektiv
# as §1
# Zur Prüfung auf protektive Wirksamkeit werden junge Pflanzen mit der Wirkstoff zubereitung in der angegebenen Aufwandmenge besprüht. Nach Antrocknen des Spritzbelages werden die Pflanzen mit einer wäßrigen Konidiensuspension des Apfelschorferregers Venturia inaequalis inokuliert und verbleiben dann 1 Tag bei ca. 20°C und 100% relativer Luftfeuchtigkeit in einer Inkubations-kabine.
# Die Pflanzen werden dann im Gewächshaus bei ca, 21°C und einer relativen Luftfeuchtigkeit von ca. 90% aufgestellt.
# 10 Tage nach der Inokulation erfolgt die Auswertung. Dabei bedeutet 0% ein Wirkungsgrad, der demjenigen der Kontrolle entspricht, während ein Wirkungsgrad von 100% bedeutet, daß kein Befall beobachtet wird.
# [4] = HPLC method of the footnote to Tabelle 1
# [5] = reversed-phase c18 hplc, HPLC, 40°C, 0.1% aqueous formic acid / acetonitrile gradient 10% to 95%, read-out: log p
Structure (SMILES),"logP [1, 4]","chromatographic logP [1, 5]",further results
CC(Br)C(=O)c1ccc(Cl)cc1 (stereo not shown) [2-Brom-1-(4-chlorphenyl)propan-1-on],–,–,"chromatographic logP ([1]; reversed-phase c18 hplc, HPLC method of the footnote to Tabelle 1): 3.39"
Cc1n[nH]c(=O)c(-c2cccn2C)c1-c1ccc(Cl)cc1 [5-(4-Chlorphanyl)-4-(1-Methyl-1H-pyrrol-2-yl)-6-methylpyridazin-3(2H)-on],2.45,–,–
"Cc1nnc(Cl)c(-c2cccs2)c1-c1ccc(Cl)cc1 [Beispiel 29, 3-Chlor-5-(4-chlorphenyl)-4-(2-thienyl)-6-methylpyridazin]",–,3.41,"Wirkungsgrad [2]: ≥ 70%; Wirkungsgrad [3]: ≥ 70%; chromatographic logP ([1]; c18 reversed-phase hplc, HPLC method of the footnote to Tabelle 1): 3.41"
CC1(O)OC(=O)C(c2cccs2)=C1c1ccc(Cl)cc1 (stereo not shown) [4-(4-Chlorphenyl)-5-hydroxy-5-methyl-3-(2-thienyl)furan-2(5H)-on],3.05,–,–
"Cc1n[nH]c(=O)c(-c2nc(Cl)c(Cl)s2)c1-c1ccc(Cl)cc1 [5-(4-Chlorphenyl)-4-(4,5-Dichlor-1,3-thiazol-2-yl)-6-methylpyridazin-3(2H)-on]",3.94,–,–
Cc1nnc(Cl)c(-c2cccn2C)c1-c1ccc(Cl)cc1 [Beispiel 27],–,3.24,–
Cc1nnc(Cl)c(-c2nc(Cl)c(Cl)s2)c1-c1ccc(Cl)cc1 [Beispiel 28],–,4.32,–
Cc1n[nH]c(=O)c(-c2cccs2)c1-c1ccc(Cl)cc1 [5-(4-Chlorphenyl)-4-(2-thienyl)-6-methylpyridazin-3(2H)-on],2.71,–,–
"Cc1nc(-c2c(-c3ccc(Cl)cc3)c(C)n[nH]c2=O)cs1 [5-(4-Chlorphenyl)-4-(2-methyl-1,3-thiazol-4-yl)-6-methylpyridazin-3(2H)-on]",2.26,–,–
Cc1nc(-c2c(Cl)nnc(C)c2-c2ccc(Cl)cc2)cs1 [Beispiel 26],–,2.82,–
